Data as given in article PMC2792043 (PLoS ONE, 2009).

Columns and labels:
[1] = test system: influenza A and B viruses; type: cell-based
[2] = target: NA from influenza PR8 virus (Influenza A virus, UniProt P03468); test: biochemical
NA from influenza PR8 virus, sequence (P03468 whole entry, looked up): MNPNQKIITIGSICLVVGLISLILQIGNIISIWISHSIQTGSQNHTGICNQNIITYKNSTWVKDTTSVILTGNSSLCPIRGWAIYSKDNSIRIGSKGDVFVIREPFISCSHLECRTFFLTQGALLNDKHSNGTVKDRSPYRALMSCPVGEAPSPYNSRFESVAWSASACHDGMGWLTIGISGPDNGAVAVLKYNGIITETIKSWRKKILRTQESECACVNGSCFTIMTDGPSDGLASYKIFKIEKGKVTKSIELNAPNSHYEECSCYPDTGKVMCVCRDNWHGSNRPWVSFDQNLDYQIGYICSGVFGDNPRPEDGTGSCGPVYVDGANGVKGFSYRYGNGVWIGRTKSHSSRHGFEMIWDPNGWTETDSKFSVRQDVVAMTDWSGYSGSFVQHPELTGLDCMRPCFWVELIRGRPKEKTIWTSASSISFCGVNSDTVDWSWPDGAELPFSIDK

## O=C(O)C1=CC(=C(c2ccc(O)c(C(=O)O)c2)c2ccc(O)c(C(=O)O)c2)C=CC1=O [ATA, Aurintricarboxylic acid]
[1]
  replication after pre-incubation of virus with ATA: inhibited replication of both WSN and H274Y viruses in a dose-responsive fashion
[2]
  IC50: 17 µM
